Experiments:
[1] = tested on: Downey Mildew fungus on lettuce; conditions: in vivo
[2] = type: physicochemical
Excerpt: […]. 55 grams phosphorous acid crystals were blended with 42 grams urea pills and stirred in a covered container at room temperature. […].

Molecule	Downey mildew rating, Mean of 4 Replications [1]	Ranking [1]	Pathological acerbation [1]	Stability of liquid on heating / cooling [2]
potassium phosphite [2 (potassium phosphite)]	4.81	4	–	–
NC(N)=O.OP(O)O [Urea Phosphite]	3.93	1	no indication of pathological acerbation	–
Urea Phosphite [Example 4]	–	–	–	stable upon heating to 90 °C and crystals formed upon cooling
potassium phosphite [1 (potassium phosphite)]	4.62	3	–	–
urea phosphite [Example 2]	–	–	–	stable upon heating to 90 °C or cooling to 0 °C
